# From patent US20240270750A1, “IMIDAZOLE-CONTAINING INHIBITORS OF ALK2 KINASE” (BioCryst Pharmaceuticals, Inc., priority 2021, published 2024)
# Molecular target: T1, ALK2 (Homo sapiens, UniProt Q04771)
# T1 construct: purchased ThermoFisher Scientific (Life Technologies)
# T1 sequence (Q04771 21-509): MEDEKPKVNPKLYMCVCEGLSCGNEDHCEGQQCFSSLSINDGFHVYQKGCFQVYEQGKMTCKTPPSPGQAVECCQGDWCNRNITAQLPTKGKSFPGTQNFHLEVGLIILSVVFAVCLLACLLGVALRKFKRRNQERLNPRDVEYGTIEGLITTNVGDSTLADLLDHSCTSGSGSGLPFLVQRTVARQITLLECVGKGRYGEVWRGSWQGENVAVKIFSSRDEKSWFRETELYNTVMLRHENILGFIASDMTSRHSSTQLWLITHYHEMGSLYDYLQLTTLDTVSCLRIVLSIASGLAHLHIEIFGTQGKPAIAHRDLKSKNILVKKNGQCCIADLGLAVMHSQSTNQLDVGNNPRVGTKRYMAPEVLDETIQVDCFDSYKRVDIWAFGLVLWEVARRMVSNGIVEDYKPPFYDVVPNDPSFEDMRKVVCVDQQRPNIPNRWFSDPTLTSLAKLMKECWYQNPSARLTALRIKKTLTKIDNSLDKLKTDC
# Assay: LanthaScreen Eu Kinase Binding Assay, ALK2 inhibition
# Conditions: 1 micromolar concentration
# Description: Biochemical assays to measure the inhibitory effects of the compounds were performed by ThermoFisher Scientific (Life Technologies). ALK2 inhibition was tested using LanthaScreen™ Eu Kinase Binding Assay screening protocol.
row,inhibition at 1 µM [%],Compound
1,> 50,"COc1cc(-n2cnc(Nc3nc(C(C)C)nc4c3CCN(C(=O)OC(C)(C)C)C4)c2)cc(OC)c1OC [Compound 77a, tert-butyl 2-isopropyl-4-((1-(3,4,5-trimethoxyphenyl)-1H-imidazol-4-yl)amino)-5,6-dihydropyrido[3,4-d]pyrimidine-7 (8H)-carboxylate]"
2,> 50,"COc1cc(-n2cnc(Nc3nc(C(C)C)nc4sccc34)c2)cc(OC)c1OC [Compound 81a, 2-isopropyl-N-(1-(3,4,5-trimethoxyphenyl)-1H-imidazol-4-yl)thieno[2,3-d]pyrimidin-4-amine]"
3,> 50,"COc1cc(-n2cnc(Nc3nc(C(C)C)nc4cccnc34)c2)cc(OC)c1OC [Compound 83a, 2-isopropyl-N-(1-(3,4,5-trimethoxyphenyl)-1H-imidazol-4-yl)pyrido[3,2-d]pyrimidin-4-amine]"
4,> 50,"COc1cc(-n2cnc(Nc3nc(C(C)C)nc4cc(C)sc34)c2)cc(OC)c1OC [Compound 85a, 2-isopropyl-6-methyl-N-(1-(3,4,5-trimethoxyphenyl)-1H-imidazol-4-yl)thieno[3,2-d]pyrimidin-4-amine]"
5,> 50,"COc1cc(-n2cnc(Nc3nc(C(C)C)nc4c3CCNC4)c2)cc(OC)c1OC [Compound 86a, 2-isopropyl-N-(1-(3,4,5-trimethoxyphenyl)-1H-imidazol-4-yl)-5,6,7,8-tetrahydropyrido[3,4-d]pyrimidin-4-amine]"
6,> 50,"C=C(C)c1nc2c(c(Nc3cn(-c4cc(OC)c(OC)c(OC)c4)cn3)n1)CCCC2 [Compound 88c, 2-(prop-1-en-2-yl)-N-(1-(3,4,5-trimethoxyphenyl)-1H-imidazol-4-yl)-5,6,7,8-tetrahydroquinazolin-4-amine]"
7,> 50,"COc1cc(-n2cnc(Nc3nc(C(C)C)nc4c3CCCC4)c2)cc(OC)c1OC [Compound 89a, 2-isopropyl-N-(1-(3,4,5-trimethoxyphenyl)-1H-imidazol-4-yl)-5,6,7,8-tetrahydroquinazolin-4-amine]"
8,> 50,"COc1cc(-n2cnc(Nc3nc(C(C)C)nc4scnc34)c2)cc(OC)c1OC [Compound 93a, 5-isopropyl-N-(1-(3,4,5-trimethoxyphenyl)-1H-imidazol-4-yl)thiazolo[5,4-d]pyrimidin-7-amine]"
9,> 50,"COc1cc(-n2cnc(Nc3nc(C(C)C)nc4c(C)csc34)c2)cc(OC)c1OC [Compound 96a, 2-isopropyl-7-methyl-N-(1-(3,4,5-trimethoxyphenyl)-1H-imidazol-4-yl)thieno[3,2-d]pyrimidin-4-amine]"

# Further lines, the molecule ahead of its results:
row,Compound,inhibition at 1 µM [%]
1,"COc1cc(-n2cnc(Nc3nc(C(C)C)nc4ccccc34)c2)cc(OC)c1OC [Compound 73a, 2-isopropyl-N-(1-(3,4,5-trimethoxyphenyl)-1H-imidazol-4-yl)quinazolin-4-amine]",> 50
2,"C=C(C)c1nc(Nc2cn(-c3cc(OC)c(OC)c(OC)c3)cn2)c2ncn(C(C)C)c2n1 [Compound 74c, 9-isopropyl-2-(prop-1-en-2-yl)-N-(1-(3,4,5-trimethoxyphenyl)-1H-imidazol-4-yl)-9H-purin-6-amine]",> 50
3,"COc1ccc2c(Nc3cn(-c4cc(OC)c(OC)c(OC)c4)cn3)nc(C(C)C)nc2c1 [Compound 75a, 2-isopropyl-7-methoxy-N-(1-(3,4,5-trimethoxyphenyl)-1H-imidazol-4-yl)quinazolin-4-amine]",> 50
4,"C=C(C)c1nc2c(c(Nc3cn(-c4cc(OC)c(OC)c(OC)c4)cn3)n1)CCN(C(=O)OC(C)(C)C)C2 [Compound 76c, tert-butyl 2-(prop-1-en-2-yl)-4-((1-(3,4,5-trimethoxyphenyl)-1H-imidazol-4-yl)amino)-5,6-dihydropyrido[3,4-d]pyrimidine-7 (8H)-carboxylate]",< 50
5,"C=C(C)c1nc(Nc2cn(-c3cc(OC)c(OC)c(OC)c3)cn2)c2ncccc2n1 [Compound 78c, 2-(prop-1-en-2-yl)-N-(1-(3,4,5-trimethoxyphenyl)-1H-imidazol-4-yl)pyrido[3,2-d]pyrimidin-4-amine]",> 50
6,"COc1cc2nc(C(C)C)nc(Nc3cn(-c4cc(OC)c(OC)c(OC)c4)cn3)c2cc1OC [Compound 79a, 2-isopropyl-6,7-dimethoxy-N-(1-(3,4,5-trimethoxyphenyl)-1H-imidazol-4-yl)quinazolin-4-amine]",< 50
7,"C=C(C)c1nc(Nc2cn(-c3cc(OC)c(OC)c(OC)c3)cn2)c2ccsc2n1 [Compound 80c, 2-(prop-1-en-2-yl)-N-(1-(3,4,5-trimethoxyphenyl)-1H-imidazol-4-yl)thieno[2,3-d]pyrimidin-4-amine]",> 50
8,"C=C(C)c1nc(Nc2cn(-c3cc(OC)c(OC)c(OC)c3)cn2)c2cccnc2n1 [Compound 82c, 2-(prop-1-en-2-yl)-N-(1-(3,4,5-trimethoxyphenyl)-1H-imidazol-4-yl)pyrido[2,3-d]pyrimidin-4-amine]",> 50
9,"C=C(C)c1nc(Nc2cn(-c3cc(OC)c(OC)c(OC)c3)cn2)c2sc(C)cc2n1 [Compound 84c, 6-methyl-2-(prop-1-en-2-yl)-N-(1-(3,4,5-trimethoxyphenyl)-1H-imidazol-4-yl)thieno[3,2-d]pyrimidin-4-amine]",> 50
10,"COc1cc2nc(Nc3cn(-c4cc(OC)c(OC)c(OC)c4)cn3)nc(C(C)C)c2cc1OC [Compound 87a, 4-isopropyl-6,7-dimethoxy-N-(1-(3,4,5-trimethoxyphenyl)-1H-imidazol-4-yl)quinazolin-2-amine]",> 50
11,"C=C(C)c1nc(Nc2cn(-c3cc(OC)c(OC)c(OC)c3)cn2)nc2sccc12 [Compound 90b, 4-(prop-1-en-2-yl)-N-(1-(3,4,5-trimethoxyphenyl)-1H-imidazol-4-yl)thieno[2,3-d]pyrimidin-2-amine]",> 50
12,"COc1cc(-n2cnc(Nc3nc(C(C)C)c4ccsc4n3)c2)cc(OC)c1OC [Compound 91a, 4-isopropyl-N-(1-(3,4,5-trimethoxyphenyl)-1H-imidazol-4-yl)thieno[2,3-d]pyrimidin-2-amine]",> 50
13,"C=C(C)c1nc(Nc2cn(-c3cc(OC)c(OC)c(OC)c3)cn2)c2scc(C)c2n1 [Compound 92c, 7-methyl-2-(prop-1-en-2-yl)-N-(1-(3,4,5-trimethoxyphenyl)-1H-imidazol-4-yl)thieno[3,2-d]pyrimidin-4-amine]",> 50
14,"COc1cc(-n2cnc(Nc3nc(C(C)C)nc4c3ncn4C(C)C)c2)cc(OC)c1OC [Compound 94a, 2,9-diisopropyl-N-(1-(3,4,5-trimethoxyphenyl)-1H-imidazol-4-yl)-9H-purin-6-amine]",> 50
15,"C=C(C)c1nc(Nc2cn(-c3cc(OC)c(OC)c(OC)c3)cn2)c2cc(F)ccc2n1 [Compound 95c, 6-fluoro-2-(prop-1-en-2-yl)-N-(1-(3,4,5-trimethoxyphenyl)-1H-imidazol-4-yl)quinazolin-4-amine]",> 50
16,"C=C(C)c1nc(Nc2cn(-c3cc(OC)c(OC)c(OC)c3)cn2)c2ccn(C(C)C)c2n1 [Compound 97c, 7-isopropyl-2-(prop-1-en-2-yl)-N-(1-(3,4,5-trimethoxyphenyl)-1H-imidazol-4-yl)-7H-pyrrolo[2,3-d]pyrimidin-4-amine]",> 50
17,"COc1cc(-n2cnc(Nc3nc(C(C)C)nc4c3ccn4C(C)C)c2)cc(OC)c1OC [Compound 98a, 2,7-diisopropyl-N-(1-(3,4,5-trimethoxyphenyl)-1H-imidazol-4-yl)-7H-pyrrolo[2,3-d]pyrimidin-4-amine]",> 50
